We go through 18 compounds from patent publication US12486246B2, “Replication protein A (RPA)-DNA interaction inhibitors” (THE TRUSTEES OF INDIANA UNIVERSITY, priority 2019, dated 2025).

Bounds are passed on as bounds.

Data set [1] deals with sonicated salmon sperm DNA. In words: Fluorescent intercalator displacement (FID) assay, SYBR-Green. The format is binding. Conditions: 25 mM MOPS pH 6.5. The protocol: The analysis of compound interactions with DNA was determined by inhibition of SYBR-Green intercalation into DNA as we have previously described. Briefly, reactions were performed in 25 mM MOPS (pH 6.5) containing sonicated salmon sperm DNA (8.29 ng/μL), SYBR-Green, and the indicated concentrations of RPA inhibitors. Reactions were conducted in black 96-well plates. Doxorubicin, a known noncovalent DNA binding chemotherapeutic, was used as a positive control. Fluorescence was measured using a BioTek® Synergy™ H1 hybrid multi-mode microplate reader with an excitation wavelength of 485 nm, emission wavelength of 528 nm, and a read height of 7 mm. Data were collected using BioTek® Gen5™ reader software. Reactions were incubated a maximum of 5 min before measurements were collected.
In order to probe the potential role of DNA intercalation as a mechanism for RPA inhibition, compounds 19, 23, 26, 27, 43 and 45 were analyzed using FID assay along with doxorubicin (Dox) as a positive control. […] In addition, direct binding of 9 derivatives to the target protein was assessed using a differential scan fluorimetry (DSF) assay. This assay assesses the melting profile of a protein at increasing temperatures via fluorescent dye binding. The direct interaction of a small molecule to the target protein can either increase or decrease the melting temperature (Tm) of the target depending on the specific protein and their interactions. […] Heparin sulfate, a known RPA interacting molecule often used in the purification of the protein was used as a control. […] (data not shown). […] (FIG. 1B).

In data set [2] the target is T1, full length heterotrimeric human RPA (Homo sapiens, UniProt P27694).
T1 construct: Full length, heterotrimeric human RPA (fl-RPA) and DBD-A/B constructs were expressed and purified; made in house
In words: Electrophoretic mobility shift assay (EMSA), binding of full length human RPA to ssDNA. Conditions: for IC50: full length human RPA binding to DNA, mean ± SD of minimum triplicate experiments. How it is done:
Full length, heterotrimeric human RPA (fl-RPA) and DBD-A/B constructs were expressed and purified according to previously described protocol. The DBD-A/B construct was expressed as a His6-RPA181-422 fusion protein. E. coli BL21 (DE3) cells in log growth were induced for 3 h with 0.5 mM IPTG at 37° C. The cells were lysed via sonication in buffer containing 20 mM Tris pH 7.5, 500 mM NaCl, 10 mM b-mercaptoethanol, supplemented with 25 μg/mL lysozyme, 1 μg/mL leupeptin, 1 μg/mL pepstatin and 0.5 mM PMSF. The lysate was applied to a 20 mL phosphocellulose column equilibrated in the same buffer and the flow-through material collected, brought to 5 mM Imidazole and loaded onto a 2 ml Ni-NTA column. The column was washed and proteins eluted on with a gradient from 50 mM to 500 mM imidazole. Fractions were assessed by EMSA and SDS-PAGE and DBD-A/B containing fraction were pool, dialyzed against buffer containing 50 mM HEPES pH 7.0, 500 mM NaCl and 1 mM DTT and stored at −80° C.
EMSAs were carried out using previously described procedure with the following modification. EMSA reactions (20 μL) were performed with 50 nM fl-RPA and 2.5 nM 5′ [^32P]-labeled 34-base DNA in buffer containing 20 mM HEPES (pH 7.8), 1 mM DTT, 0.001% NP-40, 50 mM NaCl. Chemical compounds were suspended in DMSO and DMSO concentration in the reaction mixture was kept constant at 2% or below 5%. RPA was incubated with inhibitor or DMSO control in reaction buffer for 30 min before the addition of DNA. Reactions were incubated for 5 min at room temperature and products separated via 6% native polyacrylamide gel electrophoresis. The bound and unbound fractions were then quantified by phosphor-imager analysis using ImageQuant software (Molecular Dynamics, CA) and IC50 values calculated by non-linear regression using SigmPlot (Sysat). For EMSA reactions with RPA DBD-A/B, 150 nM DBD-A/B was used, and electrophoresis was performed at 4° C. All other conditions were identical to those described for the full-length RPA.
Purified full length heterotrimeric human RPA protein was used to screen a series of analogs in an electrophoretic mobility shift assay (EMSA) measuring direct binding to a ss-DNA substrate. Quantification of the EMSA data and additional concentration dependent analysis to measure IC50 values of newly synthesized analogs provided potential insight into the structure-activity relationships (Table 1 and 2). […] Fluorine and trifluoromethyl substituents were included in pyridinyl compounds 28-29.

Data set [3] can be described thus: Aqueous solubility in unbuffered water. It counts as physicochemical. Conditions: 43, 44, 45, 46, 47 vs 9, 16, 26, 28, 29 respectively. The protocol:
Aqueous solubility was determined by suspending compound in un-buffered water with stirring. Insoluble material was removed by sedimentation or filtration and soluble compound quantified by absorbance spectroscopy and LC/MS. pH dependence was determined by suspending compound in 10 mM citrate buffer at pH 4.0 or 10 mM phosphate […] as described above in the description.
The morpholine ring is commonly introduced into solvent exposed regions as a privileged solubilizing group to improve solubility or pharmacokinetic properties including metabolic stability of a prospective drug scaffold which is exemplified by many FDA approved drugs. Modifications on Ring A had less of an effect than the morpholino modifications at the alkyl carboxylic acid side chain. To determine the effect of pH on solubility, we prepared solution at 1 mM in citrate buffer at pH 4, phosphate buffer at pH 7 and carbonate buffer at pH 9.5.

T1 sequence (P27694 whole entry): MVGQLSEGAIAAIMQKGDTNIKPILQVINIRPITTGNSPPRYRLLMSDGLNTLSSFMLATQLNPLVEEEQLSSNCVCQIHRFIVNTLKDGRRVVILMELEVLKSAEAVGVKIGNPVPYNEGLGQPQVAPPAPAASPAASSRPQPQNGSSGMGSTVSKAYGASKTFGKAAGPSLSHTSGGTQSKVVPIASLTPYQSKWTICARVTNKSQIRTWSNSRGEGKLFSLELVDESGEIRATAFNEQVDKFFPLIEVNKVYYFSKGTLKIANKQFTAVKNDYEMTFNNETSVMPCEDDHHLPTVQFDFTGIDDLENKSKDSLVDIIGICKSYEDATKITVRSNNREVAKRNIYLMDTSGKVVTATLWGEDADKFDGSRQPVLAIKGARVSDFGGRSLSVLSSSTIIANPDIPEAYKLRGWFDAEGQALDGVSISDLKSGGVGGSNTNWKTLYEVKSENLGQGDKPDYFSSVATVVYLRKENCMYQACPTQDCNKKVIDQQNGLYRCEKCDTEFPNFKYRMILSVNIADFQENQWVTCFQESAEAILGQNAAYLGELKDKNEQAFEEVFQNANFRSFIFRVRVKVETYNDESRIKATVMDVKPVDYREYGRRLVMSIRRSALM
T1 sequence (P15927 whole entry partner): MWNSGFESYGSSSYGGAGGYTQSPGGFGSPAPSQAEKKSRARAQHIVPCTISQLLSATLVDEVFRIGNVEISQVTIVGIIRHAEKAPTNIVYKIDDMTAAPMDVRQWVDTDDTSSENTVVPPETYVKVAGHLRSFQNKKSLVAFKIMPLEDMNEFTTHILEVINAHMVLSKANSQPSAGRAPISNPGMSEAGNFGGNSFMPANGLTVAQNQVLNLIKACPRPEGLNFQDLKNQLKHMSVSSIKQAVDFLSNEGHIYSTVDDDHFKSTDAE
T1 sequence (P35244 whole entry partner): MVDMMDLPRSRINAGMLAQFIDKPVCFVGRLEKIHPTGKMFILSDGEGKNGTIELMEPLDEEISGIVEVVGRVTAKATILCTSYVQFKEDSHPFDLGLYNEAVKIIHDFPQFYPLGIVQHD

Usually IC50 stands for the concentration needed to halve the response being measured. As to `CCOc1ccc2cc(C3CC(c4ccc(N)cc4)=NN3C(=O)CCCC(=O)O)c(Cl)nc2c1` (centres unmarked) [Compound 19, 5-(3-(4-Aminophenyl)-5-(2-chloro-7-ethoxyquinolin-3-yl)-4,5-dihydro-1H-pyrazol-1-yl)-5-oxopentanoic acid], in data set [1], the “DNA binding activity (displacement of SYBR-Green intercalator)” value is listed as “No significant DNA binding activity”. For the same compound, the IC50 in data set [2] was found to be 2.34 ± 0.22 µM. For `CCOc1ccc2cc(C3CC(c4ccc(OC(=O)N5CCOCC5)cc4)=NN3C(=O)CCCC(=O)O)c(Cl)nc2c1` (centres unmarked) [Compound 21, 5-(5-(2-Chloro-7-ethoxyquinolin-3-yl)-3-(4-((morpholine-4-carbonyl)oxy)phenyl)-4,5-dihydro-1H-pyrazol-1-yl)-5-oxopentanoic acid], the “RPA inhibitory activity compared to compound 9 (in words)” value in data set [2] (full length RPA) was “decreased RPA inhibition”. Also, in data set [2], the IC50 is greater than 25 µM.

For `CCOc1ccc2cc(C3CC(c4ccc(I)cc4)=NN3c3cccc(C(=O)O)c3)c(Cl)nc2c1` (centres unmarked) [Compound 39, 3-(5-(2-Chloro-7-ethoxyquinolin-3-yl)-3-(4-iodophenyl)-4,5-dihydro-1H-pyrazol-1-yl)benzoic acid], the IC50 in data set [2] is greater than 25 µM. Turning to `CCOc1ccc2cc(C3CC(c4ccc(Br)cc4)=NN3C(=O)CCCC(=O)O)c(Cl)nc2c1` (centres unmarked) [Compound 16, 5-(3-(4-Bromophenyl)-5-(2-chloro-7-ethoxyquinolin-3-yl)-4,5-dihydro-1H-pyrazol-1-yl)-5-oxopentanoic acid], the IC50 in data set [2] is 19.2 ± 4.17 µM.

Take `CCOC(=O)CCCC(=O)N1N=C(c2ccc(I)cc2)CC1c1cc2ccc(OCC)cc2nc1Cl` (centres unmarked) [Compound 30, ethyl 5-(5-(2-chloro-7-ethoxyquinolin-3-yl)-3-(4-iodophenyl)-4,5-dihydro-1H-pyrazol-1-yl)-5-oxopentanoate]: the “RPA inhibitory activity compared to compound 9 (in words)” value in data set [2] (full length RPA) is recorded as “decreased RPA inhibitory activity”. Besides, the IC50 in data set [2] was greater than 25 µM.

`CCOc1ccc2cc(C3CC(c4ccc(I)cc4)=NN3c3ccc(C(=O)O)cc3)c(Cl)nc2c1` (centres unmarked) [Compound 40, 4-(5-(2-Chloro-7-ethoxyquinolin-3-yl)-3-(4-iodophenyl)-4,5-dihydro-1H-pyrazol-1-yl)benzoic acid]: the IC50 in data set [2] is greater than 25 µM.

For the compound `CCOc1ccc2cc(C3CC(c4ccc(I)cc4)=NN3C(=O)CCCCCC(=O)O)c(Cl)nc2c1` (centres unmarked) [Compound 38, 7-(5-(2-Chloro-7-ethoxyquinolin-3-yl)-3-(4-iodophenyl)-4,5-dihydro-1H-pyrazol-1-yl)-7-oxoheptanoic acid], the IC50 in data set [2] is 9.93 ± 1.23 µM.

In the case of `CCOc1ccc2cc(C3CC(c4ccc(I)cc4)=NN3C(=O)CCCCC(=O)O)c(Cl)nc2c1` (centres unmarked) [Compound 37, 6-(5-(2-Chloro-7-ethoxyquinolin-3-yl)-3-(4-iodophenyl)-4,5-dihydro-1H-pyrazol-1-yl)-6-oxohexanoic acid], in data set [2], the IC50 came to 6.86 ± 0.23 µM. `C=CC(=O)Oc1ccc(C2=NN(C(=O)CCCC(=O)O)C(c3cc4ccc(OCC)cc4nc3Cl)C2)cc1` (centres unmarked) [Compound 20, 5-(3-(4-(Acryloyloxy)phenyl)-5-(2-chloro-7-ethoxyquinolin-3-yl)-4,5-dihydro-1H-pyrazol-1-yl)-5-oxopentanoic acid]: in data set [2] (full length RPA), the “fold increase in potency/activity compared to compound 9” value is recorded as 2 fold. The IC50 in data set [2] was determined as 8.98 ± 0.98 µM. On to `COc1cccc2c1C(=O)c1c(O)c3c(c(O)c1C2=O)C[C@@](O)(C(=O)CO)C[C@@H]3O[C@H]1C[C@H](N)[C@H](O)[C@H](C)O1` [doxorubicin, reference compound], for which the “DNA binding activity (displacement of SYBR-Green intercalator)” value in data set [1] is given as “concentration dependent reduction in fluorescence”. Turning to `CCOc1ccc2cc(C3CC(c4ccc(I)cc4)=NN3C(=O)CCCC(=O)N3CCOCC3)c(Cl)nc2c1` (centres unmarked) [Compound 41, 1-(5-(2-Chloro-7-ethoxyquinolin-3-yl)-3-(4-iodophenyl)-4,5-dihydro-1H-pyrazol-1-yl)-5-morpholinopentane-1,5-dione], in data set [2], the IC50 was determined as 6.63 ± 0.48 µM. Regarding `CCOc1ccc2cc(C3CC(c4ccc(-c5ccc(F)nc5)cc4)=NN3C(=O)CCCC(=O)O)c(Cl)nc2c1` (centres unmarked) [Compound 28, 5-(5-(2-Chloro-7-ethoxyquinolin-3-yl)-3-(4-(6-fluoropyridin-3-yl)phenyl)-4,5-dihydro-1H-pyrazol-1-yl)-5-oxopentanoic acid], the IC50 in data set [2] came to 2.66 ± 0.6 µM. For `CCOc1ccc2cc(C3CC(c4ccc(-c5ccc(C(F)(F)F)nc5)cc4)=NN3C(=O)CCCC(=O)NCCCN3CCOCC3)c(Cl)nc2c1` (centres unmarked) [Compound 47, 5-(5-(2-Chloro-7-ethoxyquinolin-3-yl)-3-(4-(6-(trifluoromethyl)pyridin-3-yl)phenyl)-4,5-dihydro-1H-pyrazol-1-yl)-N-(3-morpholinopropyl)-5-oxopentanamide], the “aqueous solubility compared to carboxylic acid counterpart (in words)” value in data set [3] is on record as “increased solubility”. In addition, the IC50 in data set [2] is 5.85 ± 0.39 µM.

`CCOc1ccc2cc(C3CC(c4ccc(-c5ccoc5)cc4)=NN3C(=O)CCCC(=O)O)c(Cl)nc2c1` (centres unmarked) [Compound 22, 5-(5-(2-chloro-7-ethoxyquinolin-3-yl)-3-(4-(furan-3-yl)phenyl)-4,5-dihydro-1H-pyrazol-1-yl)-5-oxopentanoic acid]: the IC50 in data set [2] was 6.77 ± 0.64 µM.

Consider `CCOc1ccc2cc(C3CC(c4ccc(I)cc4)=NN3C(=O)CCCC(=O)NCCN3CCOCC3)c(Cl)nc2c1` (centres unmarked) [Compound 42, 5-(5-(2-Chloro-7-ethoxyquinolin-3-yl)-3-(4-iodophenyl)-4,5-dihydro-1H-pyrazol-1-yl)-N-(2-morpholinoethyl)-5-oxopentanamide], for which the IC50 in data set [2] turned out to be 10.5 ± 0.68 µM. Regarding `CCOc1ccc2cc(C3CC(c4ccc([N+](=O)[O-])cc4)=NN3C(=O)CCCC(=O)O)c(Cl)nc2c1` (centres unmarked) [Compound 18, 5-(5-(2-Chloro-7-ethoxyquinolin-3-yl)-3-(4-nitrophenyl)-4,5-dihydro-1H-pyrazol-1-yl)-5-oxopentanoic acid], the IC50 in data set [2] is greater than 25 µM. Consider `CCOc1ccc2cc(C3CC(c4ccc(O)cc4)=NN3C(=O)CCCC(=O)O)c(Cl)nc2c1` (centres unmarked) [Compound 17, 5-(5-(2-Chloro-7-ethoxyquinolin-3-yl)-3-(4-hydroxyphenyl)-4,5-dihydro-1H-pyrazol-1-yl)-5-oxopentanoic acid], for which the IC50 in data set [2] was greater than 25 µM. `CCOc1ccc2cc(C3CC(c4ccc(-c5ccc(C(F)(F)F)nc5)cc4)=NN3C(=O)CCCC(=O)O)c(Cl)nc2c1` (centres unmarked) [Compound 29, 5-(5-(2-Chloro-7-ethoxyquinolin-3-yl)-3-(4-(6-(trifluoromethyl)pyridin-3-yl)phenyl)-4,5-dihydro-1H-pyrazol-1-yl)-5-oxopentanoic acid]: the IC50 in data set [2] was found to be 4.35 ± 0.42 µM.
